“And” between values parts separate entries of the source, which are not always exact repeats. Equal entries are not always repeated.
Assays:
Assay type in all cases: biochemical
[1] = target: T1, APC (Homo sapiens, UniProt P04070); experiment: Inhibition kinetics (kobs/I) of inhibitor and fluorescent ABP; settings: pseudo-first-order, ABP/inhibitor 308 nM to 50 μM, 10 nM enzyme, substrate 154 μM SMA5, 37 °C, 30 min; mean ± s.d., n = 3; SD
T1 construct: from tissue; host or cells: fresh frozen plasma
Protocol: (§1) Protein C, factor X, and prothrombin were purified from fresh frozen plasma and then activated as previously described.[33]
(§2) All kinetic assays were performed using a spectrofluorometer (Molecular Devices SpectraMax Gemini XPS) on 96-well, white, flat bottom, nontreated plates (Corning). The parameters were as follows: excitation/emission wavelength, 355/460 nm (cutoff, 455 nm); varying concentrations of substrates, ABPs, inhibitor, and enzymes. The assay buffer (20 mM Tris-base, 150 mM NaCl, 5 mM CaCl2, pH 7.4) was prepared at room temperature, and the enzyme kinetic studies were performed at 37 °C. All enzymes were preincubated in assay buffer for 15 min at 37 °C before addition to the wells. Each assay was repeated at least twice, and the data represent the average of these repetitions. The obtained results were analyzed using SoftMax (Molecular Devices), GraphPad Prism, and Microsoft Excel software.
(§3) The kobs/I parameters for APC, thrombin, fXa, and fXIa were measured under pseudo-first-order conditions. […] Next, 60 μL of APC, thrombin, fXa, or fXIa (at a concentration of 10 nM) preincubated at 37 °C was added, and the fluorescence increase over time was measured (λex = 355 nm, λem = 460 nm) for 30 min. The kobs/I parameters were calculated in GraphPad Prism and Microsoft Excel software.[41]

[2] = target: T2, fXa (Homo sapiens, UniProt P00742); experiment: as above; settings: pseudo-first-order, ABP/inhibitor 308 nM to 50 μM, 10 nM enzyme, substrate 50 μM SMII18, 37 °C, 30 min; mean ± s.d., n = 3; SD
T2 construct: from tissue; host or cells: fresh frozen plasma
Protocol: as §1, §2, §3

[3] = target: T3, fXIa (Homo sapiens, UniProt P03951); experiment: as above; design: complete conversion of the single chain zymogen to the two-chain active form; made in house; host or cells: HEK293 cells expressing EBNA (pCEP4 vector); settings: pseudo-first-order, ABP/inhibitor 308 nM to 50 μM, 10 nM enzyme, substrate 100 μM SMX1, 37 °C, 30 min, corrected for substrate KM; mean ± s.d., n = 3; SD
Protocol: as §2
as §3, with “conditions. Inhibitor and ABP were serially diluted in assay buffer until the seventh well to obtain concentrations ranging from 308 nM to 50 μM.” for “conditions.”

[4] = target: T3, fXIa; experiment: Labeling of purified coagulation factors with ABPs, SDS-PAGE and blot; design: complete conversion of the single chain zymogen to the two-chain active form; made in house; host or cells: HEK293 cells expressing EBNA (pCEP4 vector); settings: 200 nM fXIa preincubated with 5 μM inhibitor for 60 min, then probe 1:1, 30 min
Protocol: To determine biotin-labeled ABPs selectivity, four purified coagulation factors (APC, thrombin, fXa, and fXIa) with a constant concentration of 200 nM were incubated separately with each probe (the probe/enzyme ratio was 1) in assay buffer for 30 min at 37 °C. Each enzyme was incubated with each probe in a volume of 40 μL followed by reduction with 20 μL of 3 × SDS/DTT for 5 min at 95 °C. The first well was loaded with 0.5 μL of the protein marker PageRuler Prestained Protein Ladder (Thermo Scientific), and then 10 μL of each sample was run on a 12% (w/v) 15-well gel. SDS–PAGE separation was performed at 200 V for 39 min followed by a wet tank transfer to a nitrocellulose membrane (0.2 μm, Bio-Rad) at 10 V for 60 min. The membrane was blocked with 2.5% BSA in TBS-T (Tris-buffered saline with 0.1% (v/v) Tween 20) for 60 min at room temperature. Next, the membrane was incubated with fluorescent streptavidin Alexa Fluor 647 conjugate (dilution 1:10,000 in TBS-T with 1% BSA) for 60 min. The biotin-labeled ABPs were detected at 658 nm using an Azure Biosystems Sapphire Biomolecular Imager and Azure Spot Analysis software.
For fluorescently labeled probe sample preparation, electrophoresis and membrane transfer were performed as described above. When testing the inhibitor utility, 200 nM fXIa was incubated with inhibitor (final inhibitor concentration 5 μM) for 60 min prior to probe addition. After the membrane was blocked with 2.5% BSA in TBS-T (60 min), the labeled proteins were directly imaged with a […] laser using an Azure Biosystems Sapphire Biomolecular Imager and Azure Spot Analysis software.

T3 sequence (P03951 388-625 limits assumed): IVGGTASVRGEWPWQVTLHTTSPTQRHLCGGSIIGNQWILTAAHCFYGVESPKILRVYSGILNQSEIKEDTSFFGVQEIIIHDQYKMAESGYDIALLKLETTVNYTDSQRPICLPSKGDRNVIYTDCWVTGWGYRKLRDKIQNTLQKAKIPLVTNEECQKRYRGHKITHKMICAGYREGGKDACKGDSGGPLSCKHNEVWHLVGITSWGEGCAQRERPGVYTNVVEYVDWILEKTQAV
T3 sequence (P03951 19-387 partner limits assumed): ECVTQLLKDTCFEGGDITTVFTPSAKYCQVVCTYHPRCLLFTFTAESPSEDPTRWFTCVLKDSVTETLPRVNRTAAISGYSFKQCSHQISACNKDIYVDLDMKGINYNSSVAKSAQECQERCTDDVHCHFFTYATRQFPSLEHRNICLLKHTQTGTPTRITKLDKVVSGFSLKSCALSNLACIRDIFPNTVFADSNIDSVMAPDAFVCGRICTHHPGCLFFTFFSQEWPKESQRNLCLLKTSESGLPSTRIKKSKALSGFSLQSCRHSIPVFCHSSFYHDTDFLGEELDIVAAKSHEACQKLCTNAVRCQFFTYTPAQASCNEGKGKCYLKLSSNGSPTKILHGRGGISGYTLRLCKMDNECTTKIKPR
T2 sequence (P00742 235-488 limits assumed): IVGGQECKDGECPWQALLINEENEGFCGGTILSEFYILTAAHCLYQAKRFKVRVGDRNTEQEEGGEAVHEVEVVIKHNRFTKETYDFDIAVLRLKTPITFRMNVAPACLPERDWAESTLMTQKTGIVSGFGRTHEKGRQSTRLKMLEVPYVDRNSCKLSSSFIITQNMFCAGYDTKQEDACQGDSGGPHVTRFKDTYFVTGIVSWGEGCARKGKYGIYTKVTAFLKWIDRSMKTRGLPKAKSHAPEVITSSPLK
T2 sequence (P00742 41-179 partner limits assumed): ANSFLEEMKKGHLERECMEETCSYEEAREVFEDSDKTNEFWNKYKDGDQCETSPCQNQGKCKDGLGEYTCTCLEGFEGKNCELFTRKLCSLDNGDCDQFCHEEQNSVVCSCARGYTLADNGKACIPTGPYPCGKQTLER
T1 sequence (P04070 212-461 limits assumed): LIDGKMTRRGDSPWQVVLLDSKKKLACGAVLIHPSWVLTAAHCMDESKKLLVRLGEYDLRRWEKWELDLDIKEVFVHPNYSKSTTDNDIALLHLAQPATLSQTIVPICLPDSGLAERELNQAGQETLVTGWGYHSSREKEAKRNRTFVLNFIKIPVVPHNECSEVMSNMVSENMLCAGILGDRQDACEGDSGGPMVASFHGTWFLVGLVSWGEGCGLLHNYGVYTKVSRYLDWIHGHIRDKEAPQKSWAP
T1 sequence (P04070 43-197 partner limits assumed): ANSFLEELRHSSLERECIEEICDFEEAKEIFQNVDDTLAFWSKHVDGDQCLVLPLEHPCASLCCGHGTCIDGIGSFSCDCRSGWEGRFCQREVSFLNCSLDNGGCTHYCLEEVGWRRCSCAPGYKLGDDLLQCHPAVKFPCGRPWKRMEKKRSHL

Ac-Tyr(2,6-Cl2-Z)-Nle-Glu(Bzl)-ArgP(OPh)2 [I-SMXI5]
kobs/I APC [1]: 1,570 ± 20 M^-1 s^-1
kobs/I fXa [2]: 100 ± 13 M⁻¹ s⁻¹
kobs/I fXIa [3]: 54,700 ± 2,800 M^-1 s^-1 and 54,700 ± 2800 M^-1 s^-1
effect of preblocking fXIa on P-SMXI52 labeling [4]: completely inhibited the fluorescent signal

From article PMC10041521, “Fluorescent Activity-Based Probe To Image and Inhibit Factor XIa Activity in Human Plasma” (Journal of Medicinal Chemistry, 2023)
